Results as given in patent publication US20240426776A1, “RAPID DIFFERENTIATION OF ANTIBIOTIC-SUSCEPTIBLE AND -RESISTANT BACTERIA THROUGH MEDIATED EXTRACELLULAR ELECTRON TRANSFER” (priority 2021, published 2024).
Values after ≈ are worked out from the molar mass of the structure shown. Values joined by “and” are separate entries in the source; they are usually repeats but may differ in a detail not shown here. Equal entries are not always repeated. Where two headings read alike, the source gives them in different places. Marks after values point to notes of the source that are not given here.

Tests used:
A. baumannii strain 78 = assay: Absorbance growth curves on increasing concentration of the electron transfer mediator; type: cell-based, Acinetobacter baumannii; settings: PMS concentrations higher than 15 μM; MH media; FIG. 3B
Procedure: […] The wells were inoculated to 0.1 OD600 for a total volume of 200 μL. The plates were continuously mixed by an orbital motion and maintained at 37° C. or 30° C. for S. aureus and oxacillin. Absorbance growth curves were recorded at 600 nm for 24 h and growth curves were presented as the average of three technical replicates with standard deviation.
Error bars represent standard deviation of three replicates. With this PMS concentration of 15 μM, Gram-negative species of bacteria with OD600=0.1 (approximately 10^7 and 10^8 cells per mL; Table 2) consistently had analysis times in less than 90 min, as illustrated by FIG. 3C. The current magnitude is shown to increase with increasing cell density while the response time is seen to be decreased with increasing cell density. Error bars are the standard deviation of four replicates in FIG. 3C. Increasing the cell density also contributed to the “inoculum effect” of antibiotic efficacy resulting in the need for higher concentrations of antibiotics to differentiate sensitive and resistant strains.

[1] = system: Staphylococcus aureus (strains 29213 and 43300); assay: Microdilution antibiotic susceptibility assay (MIC, CLSI guidelines); type: cell-based; settings: for MIC: Staphylococcus aureus, MH media, oxacillin: 30° C., 18-24 h, 2% NaCl, read-out: estimated minimum inhibitory concentration from this study
Procedure: Testing for S. aureus susceptibility to oxacillin differed with incubation at 30° C. for 18-24 h in MH media supplemented with 2% NaCl.
Values listed in Table 2 below include the estimated minimum inhibitory concentration from this study (μg/mL), the determination of(S) sensitive or (R) resistant microbes according to CLSI criteria, and the CLSI guidelines (μg/mL) for the species being tested. Empty cells were not evaluated.

[2] = system: Staphylococcus aureus (strains 29213 and 43300); assay: READAS electrochemical current response with PMS mediator (ASIn); type: cell-based; settings: for ASIn (antibiotic susceptibility index), single replicates: oxacillin 20× breakpoint (120 μg/mL), ASI20, 30° C., 15 μM PMS, 0.1 OD600
Procedure: Each measurement was replicated at least four times.
(S. aureus experiments) or 37° C. (all others) MH media.
The current responses measured follows a sigmoidal curve structure.
As a second example method of operation, the S. aureus strains selected from Table 2 were assessed. Initially, a 2×CLSI resistance breakpoint concentrations for two antibiotics oxacillin (12 μg/mL) and tobramycin (32 μg/mL) were used for the example method of operation. The ASI2<0.4 and it was concluded that the concentration of the antibiotics was insufficient to classify the strains as antibiotic-susceptible or -resistant. S. aureus was then treated with 4×, 6×, 8×, 10×, and 20× the breakpoint concentration of oxacillin and was compared to the control as depicted in FIG. 8A. […] S. aureus was also treated with 4× and 10× the breakpoint concentration of tobramycin and was compared to the control depicted in FIG. 8B. […] The efficacy of antibiotic was proportional to the concentration when a high cell density (1.1×10^8 CFU/mL) was used.
The ASIn analysis time for classifying the strains as resistant or susceptible for tobramycin treatment was 33-78 min which was 30 min less than needed for detecting oxacillin susceptibility which required 60-96 min.

[3] = system: Gram-positive 1 ATCC 29213, Gram-positive 2 BAA-1026; assay: READAS operator blinded test; type: cell-based; settings: oxacillin 2× (12 μg/mL); for ASIn: OD600=0.1
Procedure: Tests were conducted for which the species or resistance phenotype was not known beyond the fact that one set was a Gram-positive and the other Gram-negative, and the antibiotics to be tested were oxacillin and imipenem, respectively. The isolates were provided as coded streak plates. Because the species were unknown, the breakpoint concentration of oxacillin and imipenem were estimated from the known breakpoints of the four previously tested strains (as shown in Table 1; 6 μg/mL for oxacillin, S. aureus and 6 μg/mL imipenem for Gram-negative strains). Following the decision methodology for determining antibiotic susceptibility and resistance of READAS, the strains were first tested with 2× the resistance breakpoint concentration (12 μg/mL oxacillin or imipenem) and the ASI2 was measured. This was increased up to 24× the resistance breakpoint concentration. If ASI2≥0.4 then the strain was considered susceptible. […] If neither strain achieved an ASI2≥0.4, 24× the resistance breakpoint concentration was tested and the ASI24 was measured.
As another example method of operation, operator blinded tests were conducted using susceptible and resistant strains of Gram-positive and -negative bacteria. Because the species identification was unknown, […] oxacillin was chosen as the estimated resistance breakpoint for the Gram-positive strain and 6 μg/mL imipenem was initially chosen as the resistance breakpoint for the Gram-negative strain. The stains selected for this example method of operation include Gram-positive 1 ATCC 29213, Gram-positive 2 BAA-1026, Gram-negative 1 AR55 and Gram-negative 2 AR58 with cultures of OD600=0.1, for simplicity.
(§1) Both Gram-positive strains were correctly classified using 2×(12 μg/mL oxacillin) in <120 min (97±45 min and 103±33 min). The Gram-negative strains were also correctly classified after increasing concentrations of imipenem from 2× to 20×(12 to 120 μg/mL imipenem). […] These phenotypic results were confirmed with results of standard procedure known to those skilled in the art and are included in Table 4 below, wherein READAS(S) susceptibility was defined by an ASIn≥0.4; (R) resistant was defined by an ASIn<0.4; analysis time shown in minutes. The standard procedure established susceptibility or resistance, MIC in μg/mL, and analysis time shown in hours.

[4] = system: Gram-positive 1 ATCC 29213, Gram-positive 2 BAA-1026; assay: Standard procedure confirming blinded test (susceptibility, MIC, analysis time); type: cell-based; parameters: key to Standard procedure susceptibility or resistance (second symbol of cell): S: The standard procedure established susceptibility or resistance; R: The standard procedure established susceptibility or resistance
Procedure: as §1

[5] = system: Staphylococcus aureus (strains 29213 and 43300); settings: cited from earlier work

Compound | inhibition of bacterial growth by the electron transfer mediator (A. baumannii strain 78) | MIC ([1]; strain 29213) [µg/mL] | MIC ([1]; strain 43300) [µg/mL] | sensitive or resistant according to CLSI criteria ([1]; strain 29213) | sensitive or resistant according to CLSI criteria ([1]; strain 43300) | current response with increasing antibiotic concentration ([2]; oxacillin 4×, 6×, 8×, 10×, 20× breakpoint (FIG. 8A), tobramycin 4× and 10× (FIG. 8B), […]10^8 CFU/mL) | ASIn (antibiotic susceptibility index), single replicates ([2]; strain 29213 (susceptible)) | average ASI20 (±SE) ([2]; strain 43300 (resistant), oxacillin 20× (120 μg/mL)) | ASIn (antibiotic susceptibility index), single replicates ([2]; strain 43300 (resistant)) | READAS susceptibility (first symbol of cell) ([3]; Gram-positive 1 (ATCC 29213)) | ASIn ([3]; Gram-positive 1 (ATCC 29213)) | READAS susceptibility (first symbol of cell) ([3]; Gram-positive 2 (BAA-1026)) | ASIn ([3]; Gram-positive 2 (BAA-1026)) | MIC ([4]; Gram-positive 1 (ATCC 29213)) [µg/mL] | Standard procedure susceptibility or resistance (second symbol of cell) ([4]; Gram-positive 1 (ATCC 29213)) | MIC ([4]; Gram-positive 2 (BAA-1026)) [µg/mL] | Standard procedure susceptibility or resistance (second symbol of cell) ([4]; Gram-positive 2 (BAA-1026)) | CLSI guidelines (resistance breakpoint) for the species [5] [µg/mL]
COS(=O)(=O)[O-].C[n+]1c2ccccc2nc2ccccc21 [PMS, phenazine methosulfate] | higher concentrations produced variable degrees of inhibition between strains | – | – | – | – | – | – | – | – | – | – | – | – | – | – | – | – | –
Cc1onc(-c2ccccc2)c1C(=O)N[C@@H]1C(=O)N2[C@@H]1SC(C)(C)[C@@H]2C(=O)O [Oxacillin, oxacillin] | – | 0.5 (≈ 1.25 µM) | 32 (≈ 79.7 µM) | S | R | decreased with increasing oxacillin concentration except at low doses where no effect or an increase in the current is observed | 0.4 and 0.63 and 0.59 | 0.17±0.13 | 0.4 and 0.63 and 0.59 | S/S (READAS(S) susceptibility was defined by an ASIn≥0.4) | 0.55 ± 0.14^b | R/R ((R) resistant was defined by an ASIn<0.4) | −0.04 ± 0.19^b | 0.5 (≈ 1.25 µM) | S/S | ≥ 4 | R/R | 6
